In patent publication US7091248B2, “Treatment of adrenocortical hypersecretion and tumor growth” (priority 2001, dated 2006):
Where “and” joins values, the source holds several entries; their conditions need not be identical. Equal entries are not always repeated. Entries after “also recorded” stand apart in the source; their conditions may differ. Where two headings read alike, the source gives them in different places.

Experiments:
[1] = system: cells from the human adrenal cortex; conditions: homogenate incubations, read-out: apparent Km-value; cited from earlier work
[2] = system: rat adrenal slices; conditions: ex vivo slice culture; cited from earlier work
[3] = system: mouse adrenal zona fasciculata cells; conditions: cited from earlier work
[4] = system: adrenocortical carcinoma cells; assay: Autoradiography of slices from a lymphnode metastasis of an aldosterone producing adrenocortical carcinoma; type: cell-based, human
Experimental: Tissue from a lymphnode metastasis of an aldosterone producing adrenocortical carcinoma was obtained from a person.
(§1) Adrenal tissue was placed in ice-cold isotonic saline solution after removal and kept on ice until embedded in 3% agarose. Precision-cut slices (200 μm) were prepared in a Krumdieck tissue slicer (Alabama Research and Development, Munford, Ala., USA) in ice-cold PBS. Slices of roughly equal size were placed in culture medium on a titanium screen holder and incubated for 24 h (after a 1 h pre-incubation).
Microautoradiography: Slices were incubated with MeSO2-[^14C]DDE (2.6 μM, 35 nCi/ml) or o,p′-[^14C]DDD (3.8 μM, 60 nCi/ml) for 24 h. The labeled substances were added to the medium dissolved in DMSO. Following incubation, slices were fixed overnight in buffered formaldehyde (4%). The fixed slices were dehydrated, embedded in methacrylate, sectioned, and dipped in liquid NTB2 film emulsion, as described elsewhere (4). Autoradiograms were exposed (4° C.) for one year to enable localization of irreversible binding in metyrapone-treated slices. Autoradiograms were developed, stained, and examined as previously described (4).

[5] = system: normal adrenal slices; assay: Microautoradiography of irreversible binding in precision-cut normal adrenal slice culture; type: cell-based; conditions: normal human adrenal slices, 24 h; MeSO2-[14C]DDE 2.6 μM, o,p′-[14C]DDD 3.8 μM
Experimental: Normal adrenal tissue, cortex as well as apparently unaffected medulla, was obtained from a […] MEN 2 patient operated on for an ipsilateral pheochromocytoma. Another normal adrenal was obtained from a patient operated on for a renal carcinoma.
as §1
(§2) To inhibit CYP-dependent enzyme activity in the slices, incubation wells were supplemented with the CYP11B1 (11β-hydroxylase) inhibitor metyrapone (50 μM) when applicable. To stimulate ACTH-regulated enzyme activity in the slices, the synthetic ACTH-analogue tetracosactide (11 nM) was added. The labeled and unlabeled test substances (MeSO2-DDE and o,p′-DDD) were added to the fresh incubation medium, dissolved in DMSO (not exceeding 0.5% of the total volume). Control slices were cultured in medium containing DMSO only.
Microautoradiography: Slices were incubated with MeSO2-[^14C]DDE (2.6 μM, 35 nCi/ml) or o,p′-[^14C]DDD (3.8 μM, 60 nCi/ml) for 24 h. The labeled substances were added to the medium dissolved in DMSO. […]

[6] = target: T1, CYP 11B1 (Homo sapiens, UniProt P15538); design: endogenous in cells; host or cells: H295R human adrenocortical carcinoma cell line; conditions: 10 μM; H295R cells; cited from earlier work
T1 sequence (P15538 25-503): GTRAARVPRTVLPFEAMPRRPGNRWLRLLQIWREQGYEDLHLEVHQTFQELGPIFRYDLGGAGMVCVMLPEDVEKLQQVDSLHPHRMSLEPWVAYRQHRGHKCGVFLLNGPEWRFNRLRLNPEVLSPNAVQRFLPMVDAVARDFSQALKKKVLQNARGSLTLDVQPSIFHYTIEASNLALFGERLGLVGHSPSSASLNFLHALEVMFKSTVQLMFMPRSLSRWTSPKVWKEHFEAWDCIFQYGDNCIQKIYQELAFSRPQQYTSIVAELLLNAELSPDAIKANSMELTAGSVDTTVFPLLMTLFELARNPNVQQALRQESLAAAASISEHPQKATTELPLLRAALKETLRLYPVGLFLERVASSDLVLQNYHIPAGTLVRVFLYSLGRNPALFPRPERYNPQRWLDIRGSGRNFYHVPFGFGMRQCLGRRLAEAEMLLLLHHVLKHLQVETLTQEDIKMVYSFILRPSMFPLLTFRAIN

[7] = system: mouse adrenal slices; conditions: cited from earlier work; for irreversible binding in mouse adrenal cortex slices: ex vivo slice culture
[8] = system: adrenal slices; assay: Steroid hormone secretion from adrenal slices into culture medium (HPLC); type: cell-based, human; conditions: 25 μM
Experimental: as §1, §2
Cortisol, 11-deoxycortisol, corticosterone, 11-deoxycorticosterone, aldosterone, androstenedione and 17-OH-progesterone concentrations in the medium were measured with HPLC using UV detection (241 nm), as described previously (4). The steroid products were separated using a linear gradient of 18–80% acetonitrile (1 ml/min), obtained by diluting acetonitrile/tetrahydrofuran (90/10 vol %) with methanol/water (40/60 vol %), for 32 min. The amounts of steroids were expressed as nmol/slice. The detection level of cortisol/corticosterone was 5 pmol/ml medium. To adjust for differences in slice size, the steroids were expressed as a percentage of the amount of cortisol from the same slice.

[9] = system: bilateral non-functioning adrenocortical hyperplasia; assay: Bound radioactivity in slices from a bilateral non-functioning adrenocortical hyperplasia; type: cell-based, human
Experimental: Tissue from a bilateral non-functioning adrenocortical hyperplasia was obtained from a person.
as §1
To inhibit CYP-dependent enzyme activity in the slices, incubation wells were supplemented with the CYP11B1 (11β-hydroxylase) inhibitor metyrapone (50 μM) when applicable. […]
Phosphorautoradiography: Semi-quantification of tissue-bound radioactivity was accomplished by apposing tissue sections to imaging plates (BAS-IP MP 2040S Fuji, Japan) for 49 days. The radioactivity in the labeled areas of the adrenal sections was recorded by reading the imaging plate in a Phosphoimager (BAS 1500, Fuji, Japan). For semi-quantification of the tissue-bound radioactivity, a Windows-based bio-imaging analyzer program (ImageGauge, version 3.122, Fujifilm, Japan) was used.
In order to correlate tissue-bound radioactivity and metabolically active regions in the incubated slices, the labeled areas of the images were marked selectively at 1 pixel resolution (1 pixel=100 μm). […]

[10] = system: normal adrenal slices; assay: Phosphorautoradiography, semi-quantification of tissue-bound radioactivity in normal adrenal slices; type: cell-based, human; conditions: for inhibition of irreversible binding in zona fasciculata/reticularis in metyrapone-exposed slices: metyrapone 50 μM, 24 h of exposure, compared with slices without metyrapone; for amount of tissue-bound radioactivity, MeSO2-[14C]DDE- versus o,p′-[14C]DDD-exposed slices: normal human adrenal slices, phosphorautoradiography
Experimental: Normal adrenal tissue, cortex as well as apparently unaffected medulla, was obtained from a […] MEN 2 patient operated on for an ipsilateral pheochromocytoma. Another normal adrenal was obtained from a patient operated on for a renal carcinoma. Adrenal tissue was placed in ice-cold isotonic saline solution after removal and kept on ice until embedded in 3% agarose. Precision-cut slices (200 μm) were prepared in a Krumdieck tissue slicer (Alabama Research and Development, Munford, Ala., USA) in ice-cold PBS. Slices of roughly equal size were placed in culture medium on a titanium screen holder and incubated for 24 h (after a 1 h pre-incubation). To inhibit CYP-dependent enzyme activity in the slices, incubation wells were supplemented with the CYP11B1 (11β-hydroxylase) inhibitor metyrapone (50 μM) when applicable. To stimulate ACTH-regulated enzyme activity in the slices, the synthetic ACTH-analogue tetracosactide (11 nM) was added. The labeled and unlabeled test substances (MeSO2-DDE and o,p'-DDD) were added to the fresh incubation medium, dissolved in DMSO (not exceeding 0.5% of the total volume). Control slices were cultured in medium containing DMSO only. Phosphorautoradiography: […] The radioactivity in the labeled areas of the adrenal sections was recorded by reading the imaging plate in a Phosphoimager (BAS 1500, Fuji, Japan). For semi-quantification of the tissue-bound radioactivity, a Windows-based bio-imaging analyzer program (ImageGauge, version 3.122, Fujifilm, Japan) was used. […] The values were adjusted according to the difference in specific activity of the two compounds. In order to check the imaging plates with respect to exposure linearity, the same plate was repeatedly exposed to the same sections for 7, 14, 28, 49 and 122 days, reading and erasing the plate between each exposure. […] Intra-exposure variation was measured on three adjacent sections on the same glass-slide.

[11] = target: T1, CYP 11B1; design: expressed in transfected cells; host or cells: V79 hamster cells; conditions: 5 μM; V79 hamster cells transfected with human CYP11B1 DNA; cited from earlier work
[12] = system: adrenocortical carcinoma; conditions: cited from earlier work

SMILES | Km [1] [µM] | irreversible binding in rat adrenal slices [2] | binding to adrenocortical carcinoma cells [4] | labeling of adrenal zones in autoradiograms (irreversible binding) [5] | irreversible binding in mouse adrenal cortex slices [7] | cortisol or corticosterone secretion compared with control slices [8] | effect on steroid secretion compared with control [8] | inhibition of irreversible binding in zona fasciculata/reticularis in metyrapone-exposed slices [10] | amount of tissue-bound radioactivity, MeSO2-[14C]DDE- versus o,p′-[14C]DDD-exposed slices [10] | further results
CS(=O)(=O)c1cc(C(=C(Cl)Cl)c2ccc(Cl)cc2)ccc1Cl [MeSO2-DDE, 1-(4-Chloro-3-methylsulphonylphenyl)-1-(4-chlorophenyl)-2,2-dichloroethene] | 1.4 | very weak binding | irreversibly bound | high and selective labeling of zona fasciculata and zona reticularis; also recorded: confined to both zona fasciculata and zona reticularis | strong irreversible binding | no significant difference | increased accumulation of 11-deoxycorticosterone, 11-deoxycortisol and androstenedione | below the detection limit | no significant difference | plasma corticosterone levels ([3]; mice, following exposure): reduced plasma corticosterone levels; irreversible binding to cellular macromolecules in vivo ([3]; mouse adrenal zona fasciculata cells): cell-specific irreversible binding; binding to adrenocortical carcinoma cells ([4]; listed as MeSO2-[^14C]DDE): selective binding; effect on CYP 11B1 enzyme activity [6]: inhibit CYP 11B1 enzyme activity; 11-deoxycortisol in the culture medium [8]: detectable only in the culture medium of MeSO2-DDE-exposed slices; 11-deoxycorticosterone secretion to the medium ([8]; compared with o,p′-DDD exposed slices and control slices): significant increase; androstenedione secretion ([8]; compared with o,p′-DDD-exposed slices): increased; irreversible binding in nonfunctional adrenocortical hyperplasia [9]: irreversibly bound
CC(C)(C(=O)c1cccnc1)c1cccnc1 [metyrapone] | – | – | – | – | – | – | – | – | – | effect of metyrapone on irreversible protein binding and toxicity of MeSO2-DDE in the adrenal zona fasciculata ([3]; mouse, in vivo): effectively blocked; effect of metyrapone on irreversible MeSO2-[14C]DDE-binding and corticosterone secretion ([7]; mouse adrenal slice culture and mouse adrenal homogenate): inhibits; block of synthesis of cortisol from 11-deoxycortisol [11]: 86%
Clc1ccc(C(c2ccccc2Cl)C(Cl)Cl)cc1 (stereo not drawn) [o,p′-DDD, 1-(2-chlorophenyl)-1-(4-chlorophenyl)-2,2-dichloroethane] | 24 | negligable irreversible binding | selective binding | high and selective labeling of zona fasciculata and zona reticularis; also recorded: localized in a similar way | negligable irreversible binding | no significant difference | did not produce any visible effect | 32% | no significant difference | patients not cured by surgery who responded to treatment ([12]; adrenocortical carcinoma patients): 194 out of 551; side effects ([12]; patients, therapeutic doses): dose-dependent side effects in the gastrointestinal tract (nausea, vomiting and diarrhea) and CNS (dizziness and headaches); therapeutically insufficient plasma concentrations ([12]; patients): below 10 μg/ml and < 31 μM; irreversible binding in mouse adrenal cortex slices ([7]; listed as o,p′-[^14C]DDD): very weak
